In patent publication US11517575B2, “Use of minaprine to reduce tumor growth” (Institut Gustave-Roussy, priority 2019, dated 2022):
Peptide text beside a SMILES is read from it. * marks the point of attachment. Cbz = O=C(OCc1ccccc1)*; CH2F = FC*

Tested on: HCT116 cells
Assay: Cell death profiling by quantitative flow imaging of irradiated/non-irradiated co-cultures with death effector inhibitors
Assay type: cell-based, human
Details: 4 Gy, 24 h co-culture; for engulfment of neighboring cells by gamma-irradiated CMFDA+ cells (cell-in-cell structures): Y27632 30 μM; for PS exposure on outer plasma membrane of irradiated CMFDA+ cells: Rosco 10 μM
Procedure: FIG. 2 Detection of γ-irradiation-elicited cell autonomous death modalities by quantitative imaging flow-cytometry. (A-E) Detection and quantification of plasma membrane integrity loss and PS exposure observed after 24 hour co-culture of untreated (red/dark grey) CMTMR-labeled HCT116 cells and untreated (green/light grey) CMFDA-labeled HCT116 cells (A, C-E), of untreated (red/dark grey) CMTMR-labeled HCT116 cells and untreated (green/light grey) CMFDA-labeled HCT116 cells that have been extemporally mixed (C-E) or after 24 hour co-culture of untreated (red/dark grey) […] HCT116 cells with (green/light grey) CMFDA-labeled HCT116 cells (green) that have been irradiated with 4 grays of γ-ionizing radiation (B-E). The co-cultures have been performed in presence or absence of the indicated pharmacological death effector inhibitors. The detection of plasma membrane integrity (with DRAQ7) and PS exposure (with BV786-streptavidin/Annexin V biotin) have been analyzed for the untreated (red/dark grey) CMTMR^+ HCT116 cells, for untreated (green/light grey) CMFDA^+ HCT116 cells, for treated (green/light grey) CMFDA^+ HCT116 cells and for total cell population (CMTMR^+ or CMFDA^+ HCT116 cells). Representative dot plots (A,B) and quantitative data (C-E) are shown (means±SEM, n=3). (F,G) Representative cell cycle distributions of untreated (red/dark grey) CMTMR^+ HCT116 cells, untreated (green/light grey) CMFDA^+ HCT116 cells, treated (green/light grey) CMFDA^+ HCT116 cells and for total cell population (CMTMR^+ or CMFDA^+ HCT116 cells) obtained after 24 hour co-culture of untreated (red/dark grey) CMTMR-labeled HCT116 cells with untreated (green/light grey) CMFDA-labeled HCT116 cells (F, H-J), of untreated (red/dark grey) CMTMR-labeled HCT116 cells and untreated (green/light grey) CMFDA-labeled HCT116 cells that have been extemporally mixed (H-J) or after 24 hour co-culture of untreated (red/dark grey) CMTM-labeled HCT116 cells with (green/light grey) CMFDA-labeled HCT116 cells (green/light grey) that have been irradiated with 4 grays of γ-ionizing radiation (G-J) are shown. Quantitative data of cell cycle analysis are shown in (H-J) (means±SEM, n=3). * or # or $ represents p<0.05, ## or $$ p<0.01, *** or ###p<0.001.
FIG. 3 Detection of γ-irradiation-elicited non-cell autonomous death modalities by quantitative imaging flow-cytometry and confocal fluorescence microscopy. (A-G) Cell-in-cell structures and target cell degradation were determined by quantitative imaging (A-C) and confocal fluorescent microscopy (D-G) after 24 hour co-culture of untreated (red/dark grey) CMTM-labeled HCT116 cells with (green/light grey) CMFDA-labeled HCT116 cells that have been irradiated with 4 grays of γ-ionizing radiation (A), coculture of untreated (red/dark grey) CMTMR-labeled HCT116 cells with untreated (green/light grey) CMFDA-labeled HCT116 cells (B, C) or on CMTMR labeled (red/dark grey) HCT116 cells and untreated (green/light grey) CMFDA-labeled HCT116 cells that have been extemporally mixed (B, C). As previously described, cells have been sequentially labeled after co-cultures with specific fluorescent probes like BV786-streptavidin-Annexin V biotin, DRAQ7, and Hoechst 33342. Then, (red/dark grey) CMTMR-labeled HCT116 cells internalizing (green/light grey) CMFDA-labeled HCT116 cells (noted R(G)), and (green/light grey) CMFDA-labeled HCT116 cells internalizing (red/dark grey) CMTMR-labeled HCT116 cells (noted G(R)) were detected. Representative images are shown in (A) (scale, 20 μm). Frequencies of Cell-in-Cell structures (B) and target cell degradation (C) are reported (means±SEM, n=3). Representative confocal images of cell-in-cell structures (white arrow) (D) and target cell degradation (white dotted arrow) (E) detected during co-culture of untreated (red) CMTMR-labeled HCT116 cells with untreated or γ-irradiated (green) CMFDA-labeled cells are shown (scale bar=10 μm). […]

Structure (SMILES)	engulfment of neighboring cells by gamma-irradiated CMFDA+ cells (cell-in-cell structures) (ZVAD 100 μM)	PS exposure on outer plasma membrane of irradiated CMFDA+ cells (ZVAD 100 μM)	cellular degradation of engulfed CMTMR+ cells (ZVAD 100 μM, YVAD 100 μM)	frequency of dying cells (AnnexinV+DRAQ7- and DRAQ7+) (total, non-irradiated CMTMR+ and irradiated CMFDA+ cells, BafA1 50 nM)
C[C@@H](N)[C@H]1CC[C@H](C(=O)Nc2ccncc2)CC1 [Y27632]	repressed	–	–	–
COC(=O)CC(NC(=O)C(C)NC(=O)C(NC(=O)OCc1ccccc1)C(C)C)C(=O)CF (stereo not drawn) [Z-VAD-fmk, Benzyloxycarbonyl-Val-Ala-Asp(OMe)-fluoromethylketone] (Cbz-Val-Ala-Asp(OMe)-CH2F; configuration not given here)	not affected	inhibited the exposure of PS	significantly reduced	–
CO/C1=C\C(C)=C\[C@@H](C)[C@@H](O)[C@@H](C)C/C(C)=C/C=C/[C@H](OC)[C@@H]([C@@H](C)[C@@H](O)[C@H](C)[C@@]2(O)C[C@@H](O)[C@H](C)[C@@H](C(C)C)O2)OC1=O [bafilomycin A1, Bafilomycin A1]	–	–	–	increased the frequency of dying cells
CC[C@H](CO)Nc1nc(NCc2ccccc2)c2ncn(C(C)C)c2n1 [roscovitine, Roscovitine]	–	inhibited the exposure of PS	–	–
